pEC50, pIC50: −log10 of the molar value.
Legend:
[1] = tested on: NQO1 specific enzyme activity in BEAS-2B cells (marker for NRF2 activation); experiment: BEAS-2B NQO1 MTT Assay; format: cell-based; conditions: Homo sapiens, compound incubated 48 hours, read-out: EC50 (NQO1 specific enzyme activity induction)
How it was run: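 BEAS-2B cells treated with compound for 48 h at 37 °C, then lysed; NQO1 activity in lysates measured kinetically by MTT reduction at A570 over 30 min. pEC50 from 3-parameter fit of ΔOD/min versus log concentration; lysate also taken for Cell Titer Glo.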

[2] = target: T1, full length Keap1 protein / full length NRF2 protein (Homo sapiens, UniProt Q14145); experiment: NRF2-Keap1 TR-FRET Low Protein Assay; format: binding; conditions: 1.25 nM Keap1 FlagHis and 2.5 nM biotin-NRF2 added
T1 construct: full length NRF2 protein and full length Keap1 protein (Keap1 exists a dimer) are used; His
T1 sequence (Q14145 whole entry): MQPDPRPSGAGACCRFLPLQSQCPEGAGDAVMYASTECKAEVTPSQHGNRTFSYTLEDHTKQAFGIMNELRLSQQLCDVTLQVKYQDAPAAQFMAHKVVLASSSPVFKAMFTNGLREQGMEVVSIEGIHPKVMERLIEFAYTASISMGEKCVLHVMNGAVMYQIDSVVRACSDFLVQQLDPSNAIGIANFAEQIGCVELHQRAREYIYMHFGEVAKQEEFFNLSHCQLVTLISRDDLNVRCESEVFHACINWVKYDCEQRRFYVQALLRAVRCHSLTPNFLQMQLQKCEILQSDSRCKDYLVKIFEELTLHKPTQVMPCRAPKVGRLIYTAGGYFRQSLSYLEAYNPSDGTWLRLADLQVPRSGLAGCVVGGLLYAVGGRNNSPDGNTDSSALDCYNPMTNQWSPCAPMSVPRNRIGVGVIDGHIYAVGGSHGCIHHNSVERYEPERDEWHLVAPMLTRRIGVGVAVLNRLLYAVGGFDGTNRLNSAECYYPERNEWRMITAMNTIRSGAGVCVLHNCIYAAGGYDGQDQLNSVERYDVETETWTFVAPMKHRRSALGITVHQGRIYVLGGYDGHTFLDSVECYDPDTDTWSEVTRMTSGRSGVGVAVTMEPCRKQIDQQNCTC
How it was run: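 Flag-tagged full-length Keap1 was preincubated with compound (3-fold series) for 2.25 h at 37 °C in Tris pH 8.0/MgCl2/NaCl/BSA/DTT/CHAPS. Biotin-Avi-NRF2 (added at 2.5 nM) was then bound for 1.25 h at 4 °C. Eu-streptavidin/anti-Flag-APC TR-FRET (665/615 nm) was read after 1 h at RT, and pIC50 came from a four-parameter fit.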

[3] = target: T2, Keap1 Kelch domain (321-609) / TAMRA-labeled 16mer NRF2 peptide (ETGE motif) (Homo sapiens, UniProt Q14145); experiment: NRF2-Keap1 FP Assay (Keap1 Kelch fluorescence polarization); format: binding; conditions: 20 nM Keap1 (321-609), 8 nM Tamra labeled peptide
T2 construct: the Kelch domain (321-609) of Keap1 is used
T2 sequence (Q14145 321-609): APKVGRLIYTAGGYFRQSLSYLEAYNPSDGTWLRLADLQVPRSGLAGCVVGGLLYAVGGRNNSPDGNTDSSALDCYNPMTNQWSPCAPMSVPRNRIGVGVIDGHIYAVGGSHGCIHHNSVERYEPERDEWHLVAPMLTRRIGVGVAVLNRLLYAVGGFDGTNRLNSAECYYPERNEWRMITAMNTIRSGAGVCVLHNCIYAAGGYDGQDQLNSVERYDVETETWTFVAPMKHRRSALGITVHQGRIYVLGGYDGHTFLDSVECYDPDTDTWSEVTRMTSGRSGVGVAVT
How it was run: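 Compound dilutions (3-fold) were incubated 1 hr at room temperature with 20 nM Keap1 Kelch (321-609) and 8 nM TAMRA-labeled ETGE 16mer peptide. Buffer was 50 mM Tris pH 8.0, 100 mM NaCl, 5 mM MgCl2, 1 mM DTT, 2 mM CHAPS, 0.005% BSA. Fluorescence polarization (mP) was normalized to controls and fitted with a four-parameter equation to give pIC50.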

Compound | pIC50 [2] | pIC50 [3] | pEC50 [1]
C[C@H](Oc1cccc(-c2cccc(-n3ncc(C(=O)O)c3[C@@H]3C[C@H]3c3cnn(C)c3)c2)c1)C1CCCCC1 (racemic) [Example 103, 1-(3′-((S)-1-cyclohexylethoxy)-[1,1′-biphenyl]-3-yl)-5-(trans-2-(1-methyl-1H-pyrazol-4-yl)cyclopropyl)-1H-pyrazole-4-carboxylic Acid] | 5.00 to 6.00 | 5.00 to 6.00 | 6.00 to 7.00
CCC[C@@H]1CCCCN1C(=O)c1cccc(-c2cccc(-n3ncc(C(=O)O)c3[C@@H]3C[C@H]3c3cc(C)no3)c2)c1F (racemic) [Example 117, 1-(2′-fluoro-3′-((R)-2-propylpiperidine-1-carbonyl)-[1,1′-biphenyl]-3-yl)-5-(trans-2-(3-methylisoxazol-5-yl)cyclopropyl)-1H-pyrazole-4-carboxylic Acid] | > 8.00 | 7.00 to 8.00 | 7.00 to 8.00
CCC1COc2ccccc2CN1Cc1cccc(-c2cccc(-n3ncc(C(=O)O)c3[C@H]3C[C@@H]3c3cn(C)nn3)c2)c1 (mixture of isomers) [Example 118, 1-(3′-((3-Ethyl-2,3-dihydrobenzo[f][1,4]oxazepin-4(5H)-yl)methyl)-[1,1′-biphenyl]-3-yl)-5-((1,2-trans)-2-(1-methyl-1H-1,2,3-triazol-4-yl)cyclopropyl)-1H-pyrazole-4-carboxylic Acid] | > 8.00 | 7.00 to 8.00 | 6.00 to 7.00
CCC1c2ccccc2OCCN1Cc1cccc(-c2cccc(-n3ncc(C(=O)O)c3[C@H]3C[C@@H]3c3cn(C)nn3)c2)c1 (mixture of isomers) [Example 123, 1-(3′-((5-Ethyl-2,3-dihydrobenzo[f][1,4]oxazepin-4(5H)-yl)methyl)-[1,1′-biphenyl]-3-yl)-5-((1,2-trans)-2-(1-methyl-1H-1,2,3-triazol-4-yl)cyclopropyl)-1H-pyrazole-4-carboxylic Acid] | 7.00 to 8.00 | 7.00 to 8.00 | 7.00 to 8.00
CC[C@@H]1CN(Cc2cccc(-c3cccc(-n4ncc(C(=O)O)c4[C@H]4C[C@@H]4c4cn(C(C)C)nn4)c3)c2)Cc2ccccc2O1 (racemic) [Example 128, 1-(3′-(((R)-2-ethyl-2,3-dihydrobenzo[f][1,4]oxazepin-4(5H)-yl)methyl)-[1,1′-biphenyl]-3-yl)-5-((1,2-trans)-2-(1-isopropyl-1H-1,2,3-triazol-4-yl)cyclopropyl)-1H-pyrazole-4-carboxylic Acid] | > 8.00 | 7.00 to 8.00 | 6.00 to 7.00
CC[C@@H]1CN(Cc2cccc(-c3cccc(-n4ncc(C(=O)O)c4[C@@H]4C[C@H]4c4cn(C)nn4)c3)c2)S(=O)(=O)c2cccnc2O1 (racemic) [Example 138, 1-(3′-(((R)-4-ethyl-1,1-dioxido-3,4-dihydro-2H-pyrido[2,3-b][1,4,5]oxathiazepin-2-yl)methyl)-[1,1′-biphenyl]-3-yl)-5-((1,2-trans)-2-(1-methyl-1H-1,2,3-triazol-4-yl)cyclopropyl)-1H-pyrazole-4-carboxylic acid] | > 8.00 | 7.00 to 8.00 | 5.00 to 6.00
Cn1cc([C@@H]2C[C@H]2c2c(C(=O)O)cnn2-c2cccc(-c3cccc(S(=O)(=O)N4Cc5ccccc5OC(C)(C)C4)c3)c2)nn1 (racemic) [Example 141, 1-(3′-((2,2-Dimethyl-2,3-dihydrobenzo[f][1,4]oxazepin-4(5H)-yl)sulfonyl)-[1,1′-biphenyl]-3-yl)-5-((1,2-trans)-2-(1-methyl-1H-1,2,3-triazol-4-yl)cyclopropyl)-1H-pyrazole-4-carboxylic Acid] | 7.00 to 8.00 | 7.00 to 8.00 | 6.00 to 7.00
Cn1cc([C@@H]2C[C@H]2c2c(C(=O)O)cnn2-c2cccc(-c3cccc(S(=O)(=O)N4CCCCC4)c3)c2)nn1 (racemic) [Example 143, 5-((1,2-trans)-2-(1-Methyl-1H-1,2,3-triazol-4-yl)cyclopropyl)-1-(3′-(piperidin-1-ylsulfonyl)-[1,1′-biphenyl]-3-yl)-1H-pyrazole-4-carboxylic Acid] | 7.00 to 8.00 | 7.00 to 8.00 | 6.00 to 7.00
CC(Oc1cccc(-c2cccc(-n3ncc(C(=O)O)c3[C@H]3C[C@@H]3c3cn(C)nn3)c2)c1)[C@H]1CC[C@H](C(F)(F)F)CC1 (mixture of isomers) [Example 180, 5-((1,2-trans)-2-(1-Methyl-1H-1,2,3-triazol-4-yl)cyclopropyl)-1-(3′-((R)-1-((1R,4R)-4-(trifluoromethyl)cyclohexyl)ethoxy)-[1,1′-biphenyl]-3-yl)-1H-pyrazole-4-carboxylic acid] | 7.00 to 8.00 | 6.00 to 7.00 | 8.00 to 9.00
CC(Oc1cccc(-c2cc(O)cc(-n3ncc(C(=O)O)c3[C@H]3C[C@@H]3c3cn(C)nn3)c2)c1)C1CCCCC1 (mixture of isomers) [Example 194] | 7.00 to 8.00 | 6.00 to 7.00 | 6.00 to 7.00

Continued, in another order:

pIC50 [2] | pIC50 [3] | Compound | pEC50 [1]
6.00 to 7.00 | 6.00 to 7.00 | Cn1cc([C@@H]2C[C@H]2c2c(C(=O)O)cnn2-c2cccc(-c3cccc(/C=C/C4CCCCC4)c3)c2)nn1 (racemic) [Example 113, rac-1-(3′-((E)-2-Cyclohexylvinyl)-[1,1′-biphenyl]-3-yl)-5-(trans-2-(1-methyl-1H-1,2,3-triazol-4-yl)cyclopropyl)-1H-pyrazole-4-carboxylic Acid] | 7.00 to 8.00
7.00 to 8.00 | 6.00 to 7.00 | Cn1cc([C@@H]2C[C@H]2c2c(C(=O)O)cnn2-c2cccc(-c3cccc(CCC4CCCCC4)c3)c2)nn1 (racemic) [Example 114, rac-1-(3′-(2-Cyclohexylethyl)-[1,1′-biphenyl]-3-yl)-5-(-2-(1-methyl-1H-1,2,3-triazol-4-yl)cyclopropyl)-1H-pyrazole-4-carboxylic Acid] | 7.00 to 8.00
6.00 to 7.00 | 6.00 to 7.00 | Cn1cc([C@@H]2C[C@H]2c2c(C(=O)O)cnn2-c2cccc(-c3cccc(CN4Cc5ccccc5CC(C)(C)C4)c3)c2)nn1 (racemic) [Example 126, 1-(3′-((4,4-dimethyl-4,5-dihydro-1H-benzo[c]azepin-2(3H)-yl)methyl)-[1,1′-biphenyl]-3-yl)-5-((1,2-trans)-2-(1-methyl-1H-1,2,3-triazol-4-yl)cyclopropyl)-1H-pyrazole-4-carboxylic Acid] | 6.00 to 7.00
7.00 to 8.00 | 7.00 to 8.00 | CN1CCN(Cc2cccc(-c3cccc(-n4ncc(C(=O)O)c4[C@@H]4C[C@H]4c4cn(C)nn4)c3)c2)S(=O)(=O)c2ccccc21 (racemic) [Example 140, 1-(3′-((5-methyl-1,1-dioxido-4,5-dihydrobenzo[f][1,2,5]thiadiazepin-2(3H)-yl)methyl)-[1,1′-biphenyl]-3-yl)-5-((1,2- trans)-2-(1-methyl-1H-1,2,3-triazol-4-yl)cyclopropyl)-1H-pyrazole-4-carboxylic acid] | 5.00 to 6.00
7.00 to 8.00 | 7.00 to 8.00 | CCCC1CCCCN1S(=O)(=O)c1cccc(-c2cccc(-n3ncc(C(=O)O)c3[C@@H]3C[C@H]3c3cn(C)nn3)c2)c1 (mixture of isomers) [Example 142, 5-((1,2-trans)-2-(1-Methyl-1H-1,2,3-triazol-4-yl)cyclopropyl)-1-(3′-((2-propylpiperidin-1-yl)sulfonyl)-[1,1′-biphenyl]-3-yl)-1H-pyrazole-4-carboxylic Acid] | 6.00 to 7.00

From US10364256B2 (GlaxoSmithKline Intellectual Property Development Limited, priority 2015, dated 2019)
